The record followed here is patent US8993547B2, “3-desoxy-2-methylene-19-nor-vitamin D analogs and their uses” (Wisconsin Alumni Research Foundation, priority 2011, dated 2015).

Molecules are shown by their SMILES. pEC50, pKi: −log10 of the molar value. “Also recorded” adds a separate entry of the source.

Assay [1] concerns Human promyelocytic leukemia (HL60) cells. As to the kind of experiment: HL-60 cell differentiation (nitro blue tetrazolium reduction). It counts as cell-based. The settings on record: for pEC50: HL60 cells, 4 days. The procedure:
The study drugs were dissolved in ethanol and the concentrations determined using UV spectrophotometry. Serial dilutions were prepared so that a range of drug concentrations could be tested without changing the final concentration of ethanol (≦0.2%) present in the cell cultures.
Human promyelocytic leukemia (HL60) cells were grown in RPMI-1640 medium containing 10% fetal bovine serum. The cells were incubated at 37° C. in the presence of 5% CO2.
HL60 cells were plated at 1.2×10^5 cells/ml. Eighteen hours after plating, cells in duplicate were treated with drug. Four days later, the cells were harvested and a nitro blue tetrazolium reduction assay was performed (Collins et al., 1979; J. Exp. Med. 149:969-974). The percentage of differentiated cells was determined by counting a total of 200 cells and recording the number that contained intracellular black-blue formazan deposits. Verification of differentiation to monocytic cells was determined by measuring phagocytic activity (data not shown).

Assay [2] deals with bone calcium mobilization. As to the kind of experiment: Bone calcium mobilization (serum calcium) in vitamin D-deficient rats. It counts as in vivo, Sprague-Dawley rats. The settings on record: for bone calcium mobilization activity / serum calcium: vitamin D-deficient rats on low calcium diet (0.02%). Here is the method: (§1) Male, weanling Sprague-Dawley rats were placed on Diet 11 (Suda et al, J. Nutr. 100:1049, 1970) (0.47% Ca)+vitamins AEK for one week followed by Diet 11 (0.02% Ca)+vitamins AEK for 3 weeks. The rats were then switched to the same diet containing 0.47% Ca for one week followed by two weeks on the same diet containing 0.02% Ca. Dose administration began during the last week on 0.02% calcium diet. Four consecutive ip doses were given approximately 24 hours apart. Twenty-four hours after the last dose, blood was collected from the severed neck and the concentration of serum calcium determined by atomic absorption spectrometry as a measure of bone calcium mobilization. The first 10 cm of the intestine was also collected for intestinal calcium transport analysis using the everted gut sac method.

In assay [3] the target is T1, full-length recombinant rat vitamin D receptor (Rattus norvegicus, UniProt P13053).
T1 construct: Full-length recombinant rat receptor was expressed in E. coli; histidine tag (C); made in house; host or cells: E. coli BL21 (DE3) Codon Plus RIL
T1 sequence (P13053 1-423): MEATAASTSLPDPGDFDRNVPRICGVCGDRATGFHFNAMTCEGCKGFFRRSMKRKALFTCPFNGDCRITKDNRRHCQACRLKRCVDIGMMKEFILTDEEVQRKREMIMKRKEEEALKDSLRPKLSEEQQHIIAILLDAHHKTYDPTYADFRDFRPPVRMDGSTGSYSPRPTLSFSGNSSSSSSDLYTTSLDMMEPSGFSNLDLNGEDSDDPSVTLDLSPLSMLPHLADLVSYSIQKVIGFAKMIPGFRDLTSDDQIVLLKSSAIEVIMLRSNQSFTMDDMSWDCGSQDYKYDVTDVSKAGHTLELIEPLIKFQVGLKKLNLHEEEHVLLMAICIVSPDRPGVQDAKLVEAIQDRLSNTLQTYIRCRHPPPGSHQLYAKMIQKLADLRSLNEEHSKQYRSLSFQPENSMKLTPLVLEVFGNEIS
In words: Vitamin D receptor competitive binding with [3H]-1,25(OH)2D3. The settings on record: full-length recombinant rat VDR. Here is the method:
Full-length recombinant rat receptor was expressed in E. coli BL21 (DE3) Codon Plus RIL cells and purified to homogeneity using two different column chromatography systems. The first system was a nickel affinity resin that utilizes the C-terminal histidine tag on this protein. The protein that was eluted from this resin was further purified using ion exchange chromatography (S-Sepharose Fast Flow). Aliquots of the purified protein were quick frozen in liquid nitrogen and stored at −80° C. until use. For use in binding assays, the protein was diluted in TEDK50 (50 mM Tris, 1.5 mM EDTA, pH7.4, 5 mM DTT, 150 mM KCl) with 0.1% Chaps detergent. The receptor protein and ligand concentration was optimized such that no more than 20% of the added radiolabeled ligand was bound to the receptor.
Radiolabeled and unlabeled ligands were added to 100 mcl of the diluted protein at a final ethanol concentration of ≦10%, mixed and incubated overnight on ice to reach binding equilibrium. The following day, 100 mcl of hydroxylapatite slurry (50%) was added to each tube and mixed at 10-minute intervals for 30 minutes. The hydroxylapaptite was collected by centrifugation and then washed three times with Tris-EDTA buffer (50 mM Tris, 1.5 mM EDTA, pH 7.4) containing 0.5% Titron X-100. After the final wash, the pellets were transferred to scintillation vials containing 4 ml of Biosafe II scintillation cocktail, mixed and placed in a scintillation counter. Total binding was determined from the tubes containing only radiolabeled ligand.

Assay [4] has as its system 24-hydroxylase (24Ohase) gene promoter in ROS 17/2.8 (bone) cells. As to the kind of experiment: In vitro transcription assay, 24-hydroxylase gene promoter luciferase reporter. It counts as cell-based. The settings on record: for transcriptional activity in bone cells compared to 1α,25-dihydroxyvitamin D3: 24-hydroxylase gene; for pEC50: ROS 17/2.8 cells, 16 hours after dosing, read-out: EC50, transcriptional activity in bone cells (24-hydroxylase gene). Here is the method: Transcription activity was measured in ROS 17/2.8 (bone) cells that were stably transfected with a 24-hydroxylase (24Ohase) gene promoter upstream of a luciferase reporter gene (Arbour et al., 1998). Cells were given a range of doses. Sixteen hours after dosing the cells were harvested and luciferase activities were measured using a luminometer. RLU=relative luciferase units.
(In a reporter assay the amount or activity of a reporter protein is the signal.)

The test system of assay [5] is intestinal calcium transport. As to the kind of experiment: Intestinal calcium transport, everted gut sac method. It counts as in vivo, Sprague-Dawley rats. The settings on record: vitamin D-deficient rats. The procedure:
as §1

One may read the pEC50 as the negative decadic logarithm of the EC50, by convention in mol/L. For the molecule `C=C1/C(=C\C=C2/CCC[C@]3(C)[C@@H]([C@H](C)CCCC(C)(C)O)CC[C@@H]23)C[C@@H](O)C[C@@H]1O` [1α,25-dihydroxyvitamin D3, reference compound], the pEC50 in assay [1] was 8.70. For the same molecule, the “bone calcium mobilization activity / serum calcium” value in assay [2] is listed as “increased serum calcium levels at the dosages tested”.
The term pKi denotes the negative decadic logarithm of the Ki, by convention in mol/L. As for `C=C1CC/C(=C/C=C2\CCC[C@]3(C)[C@@H]([C@H](C)CCCC(C)(C)O)CC[C@@H]23)C[C@H]1O` [3D-MJ, (20R)-3-desoxy-2-methylene-1α,25-dihydroxy-19-nor-vitamin D3], the “binding affinity to vitamin D receptor compared to 1,25-(OH)2D3” value in assay [3] is given as “about the same affinity”. Also, in assay [3] (read-out: Ki, competition with [3H]-1,25(OH)2D3 for binding to vitamin D receptor), the pKi was 9.15. In addition, the “potency on HL-60 cell differentiation compared to 1,25(OH)2D3” value in assay [1] is “about the same potency as 1,25(OH)2D3”. The negative logarithm of the EC50 (pEC50) is 9.00 in assay [1] (Homo sapiens, HL-60, 96 h) and 9.52 in assay [4]. Besides, the “transcriptional activity in bone cells compared to 1α,25-dihydroxyvitamin D3” value in assay [4] was “about the same transcriptional activity”. For the same molecule, the “mobilization of bone calcium compared to native hormone at the same dose” value in assay [2] (87 pmol/day for 4 consecutive days) is reported as “only slightly less mobilization of bone calcium than the native hormone”. Further, in assay [2], the “bone calcium mobilization activity / serum calcium” value is listed as “about the same potency as the native hormone”. The “intestinal calcium transport activity compared to 1,25(OH)2D3” value in assay [5] is “about the same potency as 1,25(OH)2D3; also recorded: about as potent”.
Consider `C=C1CC/C(=C/C=C2\CCC[C@]3(C)[C@@H]([C@@H](C)CCCC(C)(C)O)CC[C@@H]23)C[C@H]1O` [3-desoxy-2MD, (20S)-3-desoxy-2-methylene-1α,25-dihydroxy-19-nor-vitamin D3], for which the “binding affinity to vitamin D receptor compared to 1,25-(OH)2D3” value in assay [3] is “about the same affinity”. In addition, the negative logarithm of the EC50 (pEC50) in assay [1] (Homo sapiens, HL-60, 96 h) was 9.15; in assay [4], 9.52. For the same molecule, the “transcriptional activity in bone cells compared to 1α,25-dihydroxyvitamin D3” value in assay [4] is given as “about the same transcriptional activity”. In addition, in assay [2] (780 pmol/day for 4 consecutive days, rats on low calcium diet (0.02%)), the “potency in mobilization of bone calcium relative to native hormone at the same dose” value was “about 10 times”. Besides, the “potency in releasing bone calcium stores relative to native hormone” value in assay [2] (vitamin D-deficient rats, times more potent than 1,25(OH)2D3) is “at least 10 times”. Also, the “intestinal calcium transport activity compared to 1,25(OH)2D3” value in assay [5] is given as “about one half log less potent; also recorded: at least one half log less potent than 1,25(OH)2D3”.
